Reference: publication PMC5953424 (Nature chemical biology, 2014)

Columns and labels:
PME1 = molecular target: T1, PME1 (Homo sapiens, UniProt Q9Y570); test: EnPlex assay; format: biochemical; conditions: FP-biotin 1 μM, <5 = >50% inhibition at lowest dose 5 nM
T1 sequence (Q9Y570 1-386): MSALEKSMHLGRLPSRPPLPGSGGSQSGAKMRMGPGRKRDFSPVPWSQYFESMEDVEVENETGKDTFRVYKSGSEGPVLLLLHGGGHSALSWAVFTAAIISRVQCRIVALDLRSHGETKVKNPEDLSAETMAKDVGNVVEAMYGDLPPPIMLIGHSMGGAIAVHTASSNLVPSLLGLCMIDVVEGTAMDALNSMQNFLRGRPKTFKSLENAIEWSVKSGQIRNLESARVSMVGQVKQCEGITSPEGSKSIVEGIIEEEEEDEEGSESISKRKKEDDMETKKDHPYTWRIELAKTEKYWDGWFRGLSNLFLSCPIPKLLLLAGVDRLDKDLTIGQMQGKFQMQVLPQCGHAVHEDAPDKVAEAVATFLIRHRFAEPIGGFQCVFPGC

Adverse effects in mice = format: in vivo
[1] = Oral glucose tolerance test; format: in vivo, C57BL/6 mice; conditions: mice, oral gavage 1 h before dextrose 5 g/kg; listed as ARI-2243

SMILES: COC(=O)N1C(=O)[C@](c2ccccc2)(C2CCCC2)N1C(=O)OC [ABL127]
- IC50 (PME1): 12 nM

SMILES: CC(N)C(=S)N1CCCC1B(O)O (stereo not drawn) [Compound 24, Ala-boroPro thioxoamide]
- Adverse effects in mice (Adverse effects in mice): no significant adverse effects
- Anti-hyperglycemic activity in oral glucose tolerance test [1]: highly effective and essentially equal anti-hyperglycemic glycemic activity
